Test results reported in publication PMC8620685, “Effect of Selected Silyl Groups on the Anticancer Activity of 3,4-Dibromo-5-Hydroxy-Furan-2(5H)-One Derivatives” (Pharmaceuticals, 2021).
“Also recorded” adds a separate entry of the source. Like-named read-outs stand apart in the source and are kept apart here.

Experiments:
MCF-7 = test: MTT assay, MCF-7; assay type: cell-based, human; settings: Homo sapiens, MCF7, 72 h, read-out: IC50 (cytotoxicity), MCF-7, MTT, 72 h incubation
Description: (§1) The in vitro antitumor activities of the MBA and its derivatives (Table 2) were assayed against a panel of human cancer cell lines (HCT116, HCT-116 ^−/−p53, HT-29, MCF-7, SJSA-1, U2OS, HepG2 and Hep3B) using the MTT assay. As a reference drug we used 5-fluorouracil (5-FU). […] On the basis of in vitro antiproliferative activities, compounds 3b and 3c were selected for further mechanistic studies in the HCT-116 cell line.
(§2) Human cells lines: colon cancer (HCT-116 wt, HT-29), non-small lung carcinoma (A549), and bronchial epithelial cells (BEAS-2B) were obtained from American Type Culture Collection (ATCC, Manassas, VA, USA). Isogenic cell line HCT 116 p53^−/− (deleted both p53 alleles) were a gift from Dr. Bert Vogelstein. Other cell lines, namely MCF-7, SJSA-1, U2OS, HepG2, and Hep3B were received from the collection stored at Centre of Biotechnology of Silesian University of Technology. All cells were grown in DMEM with a high glucose medium (Sigma-Aldrich, Taufkirchen, Germany) supplemented with 10% (v/v) inactivated fetal bovine serum (FBS) (EURx, Gdańsk, Poland) and 1% antibiotics (10,000 μg/mL of streptomycin and 10,000 units/ml of penicillin) (Sigma-Aldrich, Taufkirchen, Germany) at 37 °C in humidified 5% CO2. The maximum concentration of DMSO in the culture media was 0.4%.
(§3) 5 × 10^3 cells per well for the MCF-7 cell line and 2.5 × 10^3 cells per well for the other cell lines were seeded in 96-well plates to adhere for 24 h. Afterward, the cells were treated with tested compounds. After 72 hours of incubation, 50 μL 0.5 mg/ml solution of MTT (3-(4,5-dimethylthiazol-2-yl)-2,5-diphenyl-2H-tetrazolium bromide) were added to each well and the plates were incubated for 3 h at 37 °C. Next, the MTT solution was removed from the plates and formed formazan crystals were dissolved in 2-propanol (Avantor Performance Materials, Gliwice, Poland) containing 0.04 M hydrochloric acid (Avantor Performance Materials, Gliwice, Poland). The absorbance was measured at 570 nm wavelength using a multiwall plate reader (BioTek, Winooski, VT, USA). The experiment was performed at a minimum of 3 independent replicates. Cell viability was set as a percentage versus vehicle control. IC50 was defined as a concentration of a drug that decreased cell viability by 50% relative to the untreated control.

HCT 116 p53−/− = test: MTT assay, HCT 116 p53−/−; assay type: cell-based; settings: Homo sapiens, HCT-116, 72 h, read-out: IC50 (cytotoxicity), HCT 116 p53−/−
Description: as §1, §2, §3

[1] = test system: panel of human cancer cell lines (HCT116, HCT-116 −/−p53, HT-29, MCF-7, SJSA-1, U2OS, HepG2 and Hep3B); test: MTT assay, panel of human cancer cell lines; assay type: cell-based; settings: 72 h incubation, read-out: IC50 range across all tested cancer cells
Description: as §1
Human cells lines: colon cancer (HCT-116 wt, HT-29), non-small lung carcinoma (A549), and bronchial epithelial cells (BEAS-2B) were obtained from American Type Culture Collection (ATCC, Manassas, VA, USA). Isogenic cell line HCT 116 p53^−/− (deleted both p53 alleles) were a gift from Dr. Bert Vogelstein. Other cell lines, namely MCF-7, SJSA-1, U2OS, HepG2, and Hep3B were received from the collection stored at Centre of Biotechnology of Silesian University of Technology. […]
5 × 10^3 cells per well for the MCF-7 cell line and 2.5 × 10^3 cells per well for the other cell lines were seeded in 96-well plates to adhere for 24 h. […] The absorbance was measured at 570 nm wavelength using a multiwall plate reader (BioTek, Winooski, VT, USA). […]

HCT 116 wt = test: MTT assay, HCT 116 wt; assay type: cell-based, human; settings: Homo sapiens, HCT-116, 72 h, read-out: IC50 (cytotoxicity), HCT 116 wt, MTT, 72 h incubation
Description: as §1, §2, §3

HCT-116 cells [2] = test: Annexin V-FITC/PI apoptosis assay; assay type: cell-based, human
Description: To verify this thesis, we utilized annexin-V/PI double staining of cells, which were subsequently subjected to flow cytometric analysis.
The HCT 116 cells were seeded in 6-well plate (Nunc, ThermoFisher, Waltham, MA, USA) at a density of 5 × 10^4 cells/well and allowed to attach. After 24 h the medium was replaced with tested compounds. The cells were then incubated for 24 h at 37 °C. Next, both floating and adherent cells were harvested and centrifuged at 600× g. The cells were washed with PBS (phosphate buffered saline) (Sigma-Aldrich, Taufkirchen, Germany) and we followed instructions from the manufacturer of the Annexin V-FITC Apoptosis Detection Kit (Biotool, Jupiter, FL, USA). Fluorescence was measured using a Becton Dickinson FACS Aria III sorter (BD Company, San Diego, CA, USA). Experiments were repeated at least twice. Data were analyzed using FCE Express 7 Software (DeNovo Software, Pasadena, CA, USA).

HepG2 = test: MTT assay, HepG2; assay type: cell-based; settings: Homo sapiens, read-out: IC50 (cytotoxicity), HepG2
Description: as §1, §2
as §3, with “The experiment was performed at a minimum of 3 independent replicates. Cell viability was set as a percentage versus vehicle control. IC50 was defined as a concentration of a drug that decreased cell viability by 50% relative to the untreated control.” left out

HCT-116 cells [3] = test: Clonogenic (colony-formation) assay; assay type: cell-based, human; settings: HCT-116, 10 μM for 24 h, then 10 days in drug-free medium
Description: We next sought to investigate the effects of the MBA and compound 3b clonogenic potential of the HCT-116 cell line. The cells were treated with compounds 1 and 3b at 10 μM for 24 h. After harvesting, the cells were re-seeded and cultivated for another 10 days in a drug-free medium.
The HCT116 wt cells (5 × 10^4 cells/well) were plated in 6-well plates (Nunc, ThermoFisher, Waltham, USA) and treated with the tested compounds for 24 and 72 h. Cells were harvested by trypsinization and then re-seeded on the new 6-well plate (Nunc, ThermoFisher, Waltham, MA, USA) with a density of 2 × 10^3 cells/well. After 10 days the cells were washed with cold PBS (Sigma-Aldrich, Taufkirchen, Germany), fixed in ice-cold ethanol (−20 °C) for 3 minutes, air-dried, washed again with cold PBS and stained with 0.01% crystal violet (Sigma-Aldrich, Taufkirchen, Germany) in dH2O (deionized water) for 15 min. Next the plates were washed in dH2O and allowed to dry. Colonies were counted with a microscope (Zeiss, Oberkochen, Germany). Aggregates of 30 cells or more were considered as colonies. Photos were made using the G:Box transilluminator (Syngene, Cambridge, UK).

SMILES | IC50 (MCF-7) [µM] | IC50 (HCT 116 p53−/−) [µM] | IC50 [1] [µM] | IC50 (HCT 116 wt) [µM] | apoptotic (death) cells in total, annexin-V+/PI− plus annexin-V+/PI+ (HCT-116 cells [2]; 20 μM, 24 h, HCT-116) | IC50 (HepG2; HepG2, 72 h) [µM] | proapoptotic activity (HCT-116 cells [2]; 20 μM, 24 h, HCT-116) | clonogenic potential (re-growth of colonies) (HCT-116 cells [3]) | IC50 (HepG2; HepG2, MTT, 72 h incubation) [µM] | induction of apoptosis / cell death in HCT-116 (HCT-116 cells [2]; HCT-116, statement in discussion)
CC(C)(C)[Si](OC1OC(=O)C(Br)=C1Br)(c1ccccc1)c1ccccc1 (stereo not shown) [Compound 3c, 3,4-Dibromo-5-(tert-butyldiphenylsilyloxy)-furan-2(5H)-one] | 10.9 ± 0.7 | 4 ± 0.3 | 3.9 to 65.6 | 6.3 ± 0.3 | 18.5% |  |  |  |  | 
O=C1OC(O)C(Br)=C1Br (stereo not shown) [MBA, 3,4-dibromo-5-hydroxyfuran-2(5H)-one, reference compound] | 142 ± 22.6 | 25.4 ± 6 |  | 20.5 ± 5.2 |  | 91.7 ± 2.2 | negligible proapoptotic activity | attenuated the clonogenic potential of HCT-116 to a much less extent |  | 
CC(C)[Si](OC1OC(=O)C(Br)=C1Br)(C(C)C)C(C)C (stereo not shown) [Compound 3b, 3,4-Dibromo-5-(triisopropylsilyloxy)-furan-2(5H)-one] | 7.7 ± 0.9 | 10.8 ± 1 | 7.3 to 21.3 | 15.1 ± 1.2 | roughly 30% |  |  | completely abolished the re-growth of HCT-116 colonies; also recorded: abolishes the clonogenic potential | 15.6 ± 1.2 | rapidly triggered cell death
